Data from US20120214840A1, “INDOLIZINE INHIBITORS OF 5-LIPOXYGENASE” (PANMIRA PHARMACEUTICALS, LLC, priority 2009, published 2012).

test system: LTB4 in human leukocytes; assay: Human Leukocyte LTB4 Inhibition Assay; type: cell-based; conditions: Leukocyte, 0.5 h; human leukocytes stimulated with calcium ionophore, 30 minutes at 37° C., LTB4 by ELISA; read-out: LTB4 HLA IC50
Protocol: A non-limiting example of a human leukocyte inhibition assay is as follows: Blood was drawn from consenting human volunteers into heparanized tubes and 3% dextran 0.9% saline ⅓ rd volume added. After sedimentation of red blood cells a hypotonic lysis of remaining red blood cells was performed and leukocytes sedimented at 1200 rpm. The pellet was resuspended at 1.25×10^5 cells/ml and aliquoted into wells containing 1 μL 100% DMSO (vehicle) or 2.5 μL drug in 100% DMSO. Samples were incubated for 5 minutes at 37° C. and 2 μL calcium ionophore […] (from a 50 mM DMSO stock diluted just prior to the assay in Hanks balanced salt solution (Invitrogen)) to 1.25 mM) was added, solutions mixed and incubated for 30 minutes at 37° C. Samples were centrifuged at 1,200 rpm (˜200×g) for 10 minutes at 4° C., plasma removed and a 1:4 dilution assayed for LTB4 concentration using ELISA (Assay Designs). Drug concentrations to achieve 50% inhibition (IC50's) of vehicle LTB4 were determined by nonlinear regression (Graphpad Prism) of % inhibition versus log drug concentration.

Row | SMILES | IC50
1 | CCOC(=O)c1cn2cc(CNc3nnc(C(O)(CC)C(F)(F)F)o3)ccc2c1-c1ccc(F)cc1 (centres unmarked) [Compound 1-4, 1-(4-Fluoro-phenyl)-6-{[5-(1-hydroxy-1-trifluoromethyl-propyl)-[1,3,4]oxadiazol-2-ylamino]-methyl}-indolizine-2-carboxylic acid ethyl ester] | < 300 nM
2 | CCOC(=O)c1cn2cc(Cn3cc(C(O)(CC)C(F)(F)F)nn3)ccc2c1-c1ccc(F)cc1 (centres unmarked) [Compound 1-1, 1-(4-Fluoro-phenyl)-6-[4-(1-hydroxy-1-trifluoromethyl-propyl)-[1,2,3]-triazol-1-ylmethyl]-indolizine-2-carboxylic acid ethyl ester] | < 300 nM
3 | C=C(C)c1c(C(=O)OCC)cn2cc(Cn3cc(C(O)(CC)C(F)(F)F)nn3)ccc12 (centres unmarked) [Compound 1-7, 6-[4-(1-Hydroxy-1-trifluoromethyl-propyl)-[1,2,3]triazol-1-ylmethyl]-1-isopropenyl-indolizine-2-carboxylic acid ethyl ester] | < 300 nM
4 | CCC(O)(c1cn(Cc2ccc3c(-c4ccc(F)cc4)c(C(N)=O)cn3c2)nn1)C(F)(F)F (centres unmarked) [Compound 1-2, 1-(4-Fluoro-phenyl)-6-[4-(1-hydroxy-1-trifluoromethyl-propyl)-[1,2,3]triazol-1-ylmethyl]-indolizine-2-carboxylic acid amide] | < 300 nM
5 | CCOC(=O)c1cn2cc(Cn3cc(C(O)(CC)C(F)(F)F)nn3)ccc2c1C(C)C (centres unmarked) [Compound 1-8, 6-[4-(1-Hydroxy-1-trifluoromethyl-propyl)-[1,2,3]triazol-1-ylmethyl]-1-isopropyl-indolizine-2-carboxylic acid ethyl ester] | < 300 nM
6 | CCC(O)(c1cn(Cc2ccc3c(-c4ccc(F)cc4)c(C(N)=O)cn3c2)nn1)C(F)(F)F (single isomer, unassigned; enantiomer a) [Compound 1-5, 1-(4-Fluoro-phenyl)-6-[4-(1-hydroxy-1-trifluoromethyl-propyl)-[1,2,3]triazol-1-ylmethyl]-indolizine-2-carboxylic acid amide (Enantiomer A)] | < 300 nM
7 | CCC(O)(c1cn(Cc2ccc3c(-c4ccc(OC)nc4)c(C(N)=O)cn3c2)nn1)C(F)(F)F (centres unmarked) [Compound 1-14, 6-[4-(1-Hydroxy-1-trifluoromethyl-propyl)-[1,2,3]triazol-1-ylmethyl]-1-(6-methoxy-pyridin-3-yl)-indolizine-2-carboxylic acid amide] | < 300 nM
8 | CCOC(=O)c1cn2cc(Cn3cc(C(O)(CC)C(F)(F)F)nn3)ccc2c1-c1ccc(OC)nc1 (centres unmarked) [Compound 1-13, 6-[4-(1-Hydroxy-1-trifluoromethyl-propyl)-[1,2,3]triazol-1-ylmethyl]-1-(6-methoxy-pyridin-3-yl)-indolizine-2-carboxylic acid ethyl ester] | < 300 nM
9 | CCC(O)(c1cn(Cc2ccc3c(C(C)C)c(C(N)=O)cn3c2)nn1)C(F)(F)F (centres unmarked) [Compound 1-9, 6-[4-(1-Hydroxy-1-trifluoromethyl-propyl)-[1,2,3]triazol-1-ylmethyl]-1-isopropyl-indolizine-2-carboxylic acid amide] | > 1000 nM
10 | CCC(O)(c1cn(Cc2ccc3c(-c4ccc(F)cc4)c(C#N)nn3c2)nn1)C(F)(F)F (centres unmarked) [Compound 1-11, 3-(4-Fluoro-phenyl)-6-[4-(1-hydroxy-1-trifluoromethyl-propyl)-[1,2,3]triazol-1-ylmethyl]-pyrazolo[1,5-a]pyridine-2-carbonitrile] | < 300 nM
11 | CCC(O)(c1cn(Cc2ccc3c(C(C)C)c(C#N)cn3c2)nn1)C(F)(F)F (centres unmarked) [Compound 1-10, 6-[4-(1-Hydroxy-1-trifluoromethyl-propyl)-[1,2,3]triazol-1-ylmethyl]-1-isopropyl-indolizine-2-carbonitrile] | < 300 nM
12 | CCC(O)(c1cn(Cc2ccc3c(-c4ccc(F)cc4)c(C(N)=O)nn3c2)nn1)C(F)(F)F (centres unmarked) [Compound 1-12, 3-(4-Fluoro-phenyl)-6-[4-(1-hydroxy-1-trifluoromethyl-propyl)-[1,2,3]-triazol-1-ylmethyl]-pyrazolo[1,5-a]pyridine-2-carboxylic acid amide] | < 300 nM
13 | CCC(O)(c1cn(Cc2ccc3c(-c4ccc(F)cc4)c(C#N)cn3c2)nn1)C(F)(F)F (centres unmarked) [Compound 1-3, 1-(4-Fluoro-phenyl)-6-[4-(1-hydroxy-1-trifluoromethyl-propyl)-[1,2,3]triazol-1-ylmethyl]-indolizine-2-carbonitrile] | < 300 nM

same assay, conditions: human leukocytes stimulated with calcium ionophore, 30 minutes at 37° C., LTB4 by ELISA; read-out: LTB4 HLA IC50

Row | SMILES | IC50
14 | CCC(O)(c1cn(Cc2ccc3c(-c4ccc(F)cc4)c(C(N)=O)cn3c2)nn1)C(F)(F)F (single isomer, unassigned; enantiomer b) [Compound 1-6, 1-(4-Fluoro-phenyl)-6-[4-(1-hydroxy-1-trifluoromethyl-propyl)-[1,2,3]triazol-1-ylmethyl]-indolizine-2-carboxylic acid amide (Enantiomer B)] | < 300 nM
